Data taken from patent US20240336567A1, “PESTICIDAL AND HERBICIDAL COMPOUNDS AND METHODS OF USE THEREOF” (AG Plenus Ltd, priority 2021, published 2024).

How the values were obtained:
[1] = in vitro thermal shift (binding of compound to the target); settings: thermal shift caused by binding of the compound to the (unnamed) target
Arabidopsis thaliana [2] = assay: HTPS (high throughput on soil) - Dicot - Post-emergence; type: in vivo; settings: N/A: not active; for Emax: read-out: HTPS - Dicot - Post Max effect; for HTPS - Dicot - Post ED50: from normalized green area
Protocol: (§1) Arabidopsis thaliana seeds were sown in 96 well plates filled with irrigated Sweet sand (10%>clay) that is washed from salts and minerals using tap water. 5-10 seeds were sown in the center of each well. 7-8 days post sowing, at 2 true leaves stage, thinning out was performed to ensure that compound application is done on a single plant per well. The plates were placed in a controlled greenhouse in a random order inside a bath which allows flooding irrigation with tap water supplemented with a fertilizer. Applied compounds were dissolved into a final solution of 50% acetone, 49.9% DDW, 0.1% tween-20. A 96 well plate was used as a stock plate for preparing application solutions for 8 repeats. Each row contained different concentrations per chemical. Maximal concentration for application was 1.5 Kg/Ha and dilution factor is 2.5. Chemical application was performed one day after thinning out in a chemical hood. 5 μL applied on first two true leaves in each well using 12 channel pipettes. Data collection: RGB (red, green, blue) data for green area per well was documented using camera. Data is collected at a few time points during the experiment: one day after thinning and before chemical application, two-, six- or nine-days post application. During the last two documentations, visual phenotyping was performed. Data analysis: Given RGB results and visual phenotype scores, a student t-test conducted to compare between treatment and control performance for continuous data (RGB) and Fisher exact test to analyze the non-continuous data (phenotypic scores). Dose-Response curves are generated for each treatment to infer ED50 and max. inhibition parameters, using treatment's log concentration range as the […] variable and normalized green area. Plate imaging performed at 11 and 18 DAA. RGB data for green area per well was documented and used to extract % inhibition. Dose-Response curves were built for each treatment to infer ED50, ED75 and ED90 parameters, using treatment's log concentration range as the independent variable and normalized green area as the dependent variable. Treatments were compared to controls performance given RGB results and using student's t-test (p-val≤0.05).

Arabidopsis thaliana [3] = assay: HTPS - Dicot - Pre-emergence; type: in vivo; settings: N/A: not active; for Emax: read-out: HTPS - Dicot - Pre Max effect
Protocol: as §1, with “area. These experiments are conducted similarly except that either Arabidopsis thaliana or Eragrostis teff seeds were sowed (5-10 or 5-7, respectively), plant thinning out was not performed, compound dissolved into a final solution of 50% acetone, 49.9% DDW, compound application was done at 30 μL volume per well directly on sowed soil before plant emergence and data was collected 10 or 7 days after chemical application on dicot or monocot plants, respectively.” for “area.”

Eragrostis teff = assay: HTPS - Monocot - Pre-emergence; type: in vivo; settings: N/A: not active; for Emax: read-out: HTPS - Monocot - Pre Max effect
Protocol: as §1, with “area. These experiments are conducted similarly except that either Arabidopsis thaliana or Eragrostis teff seeds were sowed (5-10 or 5-7, respectively), plant thinning out was not performed, compound dissolved into a final solution of 50% acetone, 49.9% DDW, compound application was done at 30 μL volume per well directly on sowed soil before plant emergence and data was collected 10 or 7 days after chemical application on dicot or monocot plants, respectively.” for “area.”

SETVI = assay: In-planta LTP pre-emergence, visual phenotype; type: in vivo, Setaria viridis; settings: Setaria viridis, 432 h, monocot, read-out: IG Inhibited growth (% effect)
Protocol: A basic panel of 8 weed species (Table 3) were sowed in 4×4×7 cm plastic pots containing inert sand (Sweet sand), intensively washed using osmosis water. Each specie was sowed in a separate pot. In each pot 10-15 seeds were sowed according to the specie viability. Sowing was performed one day before application. The plants were grown for 21 days in a controlled greenhouse (26±2° C. day 20±2° C. night). Hood irrigation (tap water+Shefer 5:3:8 8 mM) was given at a 50% water content by weight. Compounds were soluble in water (DDW), and commercial herbicide control was soluble in formulation B (Table 4). Application was conducted with an industrial sprayer (TeeJet 6502E nozzle) at a rate of 2 kg/ha and spray volume of […]. Pre-emergence advanced dose response experiment application was conducted at six rates between 1-0.0312 kg/ha and spray volume of […]. Percentage of emergence was evaluated at 15 DAA. Visual phenotyping was recorded using a scale of 0-6 (0: no visible effect, 6: maximum effect) at 18 DAA. All experiments included an untreated control, a solvent control and a positive control (commercial herbicide A.I.). Statistical analysis for visual phenotyping determined by a median value of ≥3.5 and Fisher test (pval≤0.05). Statistical analysis for plant emergence determined by % emergence ≥50 and T test (pval≤0.05), as well as Wilcox test (pval≤0.05).

CC(CN)Oc1ccc(F)c(C(=O)O)c1 (stereo not shown) [Compound 101]
in vitro Thermal Shift [1]: 13 °C | Emax (Arabidopsis thaliana [2]): 24% | Emax (Arabidopsis thaliana [3]): 20% | Emax (Eragrostis teff): 12%

CC(C)(N)COc1cccc(C(=O)O)c1 [Compound 103]
in vitro Thermal Shift [1]: 8 °C | Emax (Arabidopsis thaliana [2]): 100% | HTPS - Dicot - Post ED50 (Arabidopsis thaliana [2]): 157 g/ha

CC(N)COc1ccc(Cl)c(C(=O)O)c1 (stereo not shown) [Compound 107]
in vitro Thermal Shift [1]: 14 °C | Emax (Arabidopsis thaliana [2]): 100% | HTPS - Dicot - Post ED50 (Arabidopsis thaliana [2]): 400 g/ha | HTPS - Dicot - Pre ED50 (Arabidopsis thaliana [3]): 127 g/ha | Emax (Arabidopsis thaliana [3]): 100% | HTPS - Monocot - Pre ED50 (Eragrostis teff): 660 g/ha | Emax (Eragrostis teff): 45%

COC(=O)c1cccc(OCC(C)N)c1 (stereo not shown) [Compound 110]
in vitro Thermal Shift [1]: 4 °C | Emax (Arabidopsis thaliana [2]): 100% | HTPS - Dicot - Post ED50 (Arabidopsis thaliana [2]): 38 g/ha | HTPS - Dicot - Pre ED50 (Arabidopsis thaliana [3]): 80 g/ha | Emax (Arabidopsis thaliana [3]): 100% | pest or weed control at 2000 g/ha (SETVI): 80%

CC(CN)Nc1cccc(C(=O)O)c1 (stereo not shown) [Compound 119]
in vitro Thermal Shift [1]: 7 °C | Emax (Arabidopsis thaliana [2]): 33% | Emax (Arabidopsis thaliana [3]): 22% | Emax (Eragrostis teff): 3%

NC1(COc2cccc(C(=O)O)c2)CC1 [Compound 121]
in vitro Thermal Shift [1]: 11 °C | Emax (Arabidopsis thaliana [2]): 99% | HTPS - Dicot - Post ED50 (Arabidopsis thaliana [2]): 256 g/ha

NC1CCCC1Oc1cccc(C(=O)O)c1 (stereo not shown) [Compound 122]
in vitro Thermal Shift [1]: 16 °C | Emax (Arabidopsis thaliana [2]): 100% | HTPS - Dicot - Post ED50 (Arabidopsis thaliana [2]): 19 g/ha | Emax (Eragrostis teff): 89%

NCCOc1cccc(C(=O)O)c1 [Compound 127]
in vitro Thermal Shift [1]: 9 °C | Emax (Arabidopsis thaliana [2]): 100% | HTPS - Dicot - Post ED50 (Arabidopsis thaliana [2]): 134 g/ha | HTPS - Dicot - Pre ED50 (Arabidopsis thaliana [3]): 180 g/ha | Emax (Arabidopsis thaliana [3]): 100% | Emax (Eragrostis teff): 94%

NCCNc1ccc(Cl)c(C(=O)O)c1 [Compound 133]
in vitro Thermal Shift [1]: 6 °C | Emax (Arabidopsis thaliana [2]): 40% | Emax (Arabidopsis thaliana [3]): 5% | Emax (Eragrostis teff): 0%

CC(N)CNc1ccc(Cl)c(C(=O)O)c1 (stereo not shown) [Compound 139]
in vitro Thermal Shift [1]: 9 °C | HTPS - Dicot - Pre ED50 (Arabidopsis thaliana [3]): 256 g/ha | Emax (Arabidopsis thaliana [3]): 100%

CC(N)CSc1cccc(C(=O)O)c1 (stereo not shown) [Compound 140]
in vitro Thermal Shift [1]: 5 °C | Emax (Arabidopsis thaliana [2]): 15% | Emax (Arabidopsis thaliana [3]): 0% | Emax (Eragrostis teff): 33%

CCOC(=O)c1cccc(OCC(C)N)c1 (stereo not shown) [Compound 150]
in vitro Thermal Shift [1]: 6 °C | HTPS - Dicot - Pre ED50 (Arabidopsis thaliana [3]): 150 g/ha | Emax (Arabidopsis thaliana [3]): 100%

NCCSc1cccc(C(=O)O)c1 [Compound 151]
in vitro Thermal Shift [1]: 5 °C

Cc1ccc(OCCN)cc1C(=O)O [Compound 152]
in vitro Thermal Shift [1]: 4 °C

C[C@H](N)COc1cccc(C(=O)O)c1 [Compound 155]
in vitro Thermal Shift [1]: 13 °C | Emax (Arabidopsis thaliana [2]): 100% | HTPS - Dicot - Post ED50 (Arabidopsis thaliana [2]): 56 g/ha | HTPS - Dicot - Pre ED50 (Arabidopsis thaliana [3]): 60 g/ha | Emax (Arabidopsis thaliana [3]): 100% | HTPS - Monocot - Pre ED50 (Eragrostis teff): 170 g/ha | Emax (Eragrostis teff): 100%

CCC(N)COc1cccc(C(=O)O)n1 (stereo not shown) [Compound 168]
in vitro Thermal Shift [1]: 15 °C | Emax (Arabidopsis thaliana [2]): 100% | HTPS - Dicot - Post ED50 (Arabidopsis thaliana [2]): 22 g/ha

NC1CCCC1Oc1cccc(C(=O)O)n1 (stereo not shown) [Compound 173]
Emax (Arabidopsis thaliana [2]): 100% | HTPS - Dicot - Post ED50 (Arabidopsis thaliana [2]): 463 g/ha

C[C@@H](N)COc1cccc(C(=O)O)n1 [Compound 174]
in vitro Thermal Shift [1]: 15 °C | Emax (Arabidopsis thaliana [2]): 100% | HTPS - Dicot - Post ED50 (Arabidopsis thaliana [2]): 44 g/ha | HTPS - Dicot - Pre ED50 (Arabidopsis thaliana [3]): 3.8 g/ha | Emax (Arabidopsis thaliana [3]): 100%

C[C@H](N)COc1cccc(C(=O)O)n1 [Compound 175]
in vitro Thermal Shift [1]: 15 °C | Emax (Arabidopsis thaliana [2]): 100% | HTPS - Dicot - Post ED50 (Arabidopsis thaliana [2]): 7 g/ha | HTPS - Dicot - Pre ED50 (Arabidopsis thaliana [3]): 3.8 g/ha | Emax (Arabidopsis thaliana [3]): 100%

CCOC(=O)CNC(=O)c1cccc(OCC(C)N)n1 (stereo not shown) [Compound 176]
in vitro Thermal Shift [1]: 2 °C | Emax (Arabidopsis thaliana [2]): 100% | HTPS - Dicot - Post ED50 (Arabidopsis thaliana [2]): 85 g/ha

CCOC(=O)CCOC(=O)c1cccc(OCC(C)N)n1 (stereo not shown) [Compound 177]
in vitro Thermal Shift [1]: 6 °C | Emax (Arabidopsis thaliana [2]): 100% | HTPS - Dicot - Post ED50 (Arabidopsis thaliana [2]): 27 g/ha

CCOC(=O)CNC(=O)c1cccc(OCC(C)N)c1 (stereo not shown) [Compound 178]
in vitro Thermal Shift [1]: 1 °C | Emax (Arabidopsis thaliana [2]): 100% | HTPS - Dicot - Post ED50 (Arabidopsis thaliana [2]): 39 g/ha

CCOC(=O)COC(=O)c1cccc(OCC(C)N)n1 (stereo not shown) [Compound 179]
in vitro Thermal Shift [1]: 9 °C | Emax (Arabidopsis thaliana [2]): 100% | HTPS - Dicot - Post ED50 (Arabidopsis thaliana [2]): 22 g/ha

COC(=O)COC(=O)c1cccc(OCC(C)N)n1 (stereo not shown) [Compound 180]
in vitro Thermal Shift [1]: 12 °C | Emax (Arabidopsis thaliana [2]): 100% | HTPS - Dicot - Post ED50 (Arabidopsis thaliana [2]): 13 g/ha

CC(N)COc1cccc(C(=O)OCC(=O)O)n1 (stereo not shown) [Compound 181]
in vitro Thermal Shift [1]: 14 °C | Emax (Arabidopsis thaliana [2]): 100% | HTPS - Dicot - Post ED50 (Arabidopsis thaliana [2]): 23 g/ha

COC(=O)CCOC(=O)c1cccc(OCC(C)N)n1 (stereo not shown) [Compound 182]
Emax (Arabidopsis thaliana [2]): 100% | HTPS - Dicot - Post ED50 (Arabidopsis thaliana [2]): 72 g/ha

CC(N)COc1cccc(C(=O)OCCC(=O)O)n1 (stereo not shown) [Compound 183]
Emax (Arabidopsis thaliana [2]): 100% | HTPS - Dicot - Post ED50 (Arabidopsis thaliana [2]): 17 g/ha

CCCCOC(=O)c1cccc(OCC(C)N)n1 (stereo not shown) [Compound 184]
in vitro Thermal Shift [1]: 5 °C | Emax (Arabidopsis thaliana [2]): 100% | HTPS - Dicot - Post ED50 (Arabidopsis thaliana [2]): 36 g/ha

C#CCOC(=O)c1cccc(OCC(C)N)n1 (stereo not shown) [Compound 185]
in vitro Thermal Shift [1]: 10 °C | Emax (Arabidopsis thaliana [2]): 100% | HTPS - Dicot - Post ED50 (Arabidopsis thaliana [2]): 30 g/ha

CC(N)COc1cc(Cl)c(F)c(C(=O)O)c1 (stereo not shown) [Compound 186]
in vitro Thermal Shift [1]: 16 °C | Emax (Arabidopsis thaliana [2]): 100% | HTPS - Dicot - Post ED50 (Arabidopsis thaliana [2]): 200 g/ha

COC(=O)c1cccc(OCC(C)N)n1 (stereo not shown) [Compound 218]
in vitro Thermal Shift [1]: 8 °C | Emax (Arabidopsis thaliana [2]): 100% | HTPS - Dicot - Post ED50 (Arabidopsis thaliana [2]): 14 g/ha

CCOC(=O)c1cccc(OCC(C)N)n1 (stereo not shown) [Compound 219]
in vitro Thermal Shift [1]: 3 °C | Emax (Arabidopsis thaliana [2]): 100% | HTPS - Dicot - Post ED50 (Arabidopsis thaliana [2]): 48 g/ha
